These results are taken from EPA's ToxValDB 9.5 (doi:10.2903/j.efsa.2010.1542).

In brackets after ≈: the same amount, converted by molar mass. A value given as a limit tells only on which side of the number the result lay.

By NOAEL is commonly meant the highest dose or exposure tested at which no adverse effect was seen.

Series [1] relates to Aphidius rhopalosiphi. The experiment in a line: LR50; higher = less toxic. The following applies: not reported; mortality.
Series [2] has as its system Daphnia magna. Particulars: chronic/long-term; duration: 21 days; reproduction.
In series [3] the test system is Bibionidae. Particulars: chronic/long-term; duration: 28 days.
For series [4], the system named is Pimephales promelas. The following applies: chronic/long-term; duration: 33 days; growth.
The test system of series [5] is Rattus norvegicus. The following applies: for NOAEL: organ weight.
Series [6] concerns Apis mellifera. The following applies: acute; duration: 48 hours; oral; unspecified; mortality.
In series [7] the test system is Canidae. Particulars: chronic; duration: 1 years; oral; Dog Other; organ weight.
Series [8] has as its system Colinus virginianus.
Series [9] concerns Tagia sp.
For series [10], the system named is Oncorhynchus mykiss. Particulars: acute; duration: 96 hours; mortality.

Turning to `CO/C=C(/C(=O)OC)c1ccccc1Oc1cc(Oc2ccccc2C#N)ncn1` [Azoxystrobin], the LR50 in series [1] is over 1000 g/ha. Also, the NOEC in series [2] was determined as 0.044 mg/L; in series [3] it was 0.8 mg/L; in series [4] it was 0.147 mg/L; in series [8] (reproduction developmental), 1200 mg/kg-day; in series [9] (chronic/long-term, duration: 56 days), 3 mg/kg. The LD50 in [5] (acute, oral, mortality) was over 5000 mg/kg-day; in series [6] it was over 25 µg/piece; in [8] (acute, oral, mortality) it was over 2000 mg/kg-day. The no-observed-adverse-effect level (NOAEL) amounted to 18 mg/kg-day in series [5] (chronic, duration: 2 years, oral, diet); 21 mg/kg-day in [5] (subchronic, duration: 90 days, oral); 25 mg/kg-day in series [7]. In [5] (reproduction developmental, body weight), the NOEL turned out to be 32 mg/kg-day. For the same compound, the LC50 is over 5200 mg/kg-day in series [8] (acute, oral, diet, mortality); 283 mg/kg in [9] (acute, duration: 14 days, mortality); 0.47 mg/L (≈ 1.17 µM) in series [10].
